Assay results as given in ChEMBL document CHEMBL5725778, “Condensed ring derivative, and preparation method, intermediate, pharmaceutical composition and use thereof” (2018).

Biological target: T1, Solute carrier family 22 member 12 (Homo sapiens, UniProt Q96S37)
T1 sequence (Q96S37 whole entry): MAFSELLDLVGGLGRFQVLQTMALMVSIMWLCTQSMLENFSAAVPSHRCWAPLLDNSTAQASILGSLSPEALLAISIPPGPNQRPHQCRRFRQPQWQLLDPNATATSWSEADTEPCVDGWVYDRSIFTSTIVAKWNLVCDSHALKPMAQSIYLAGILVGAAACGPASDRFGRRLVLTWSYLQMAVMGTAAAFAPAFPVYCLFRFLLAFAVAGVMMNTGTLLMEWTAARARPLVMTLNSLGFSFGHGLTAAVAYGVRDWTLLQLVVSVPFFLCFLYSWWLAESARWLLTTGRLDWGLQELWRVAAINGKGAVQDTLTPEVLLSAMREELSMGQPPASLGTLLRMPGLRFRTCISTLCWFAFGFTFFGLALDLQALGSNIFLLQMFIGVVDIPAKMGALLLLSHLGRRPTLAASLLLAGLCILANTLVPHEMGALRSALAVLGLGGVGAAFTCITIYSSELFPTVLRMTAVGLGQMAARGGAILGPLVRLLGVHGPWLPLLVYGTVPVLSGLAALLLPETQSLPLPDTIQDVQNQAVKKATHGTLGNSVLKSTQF
Assay: hURAT1 Inhibition Assay: Human embryonic kidney cells (HEK293) was incubated in DMEM tissue culture medium, at 37° C., under 5% CO2 and 95% air atmosphere. TransIT-293 transfection agent (MIRUS BIO, Cat. No. MIR2706) and model URAT1 were used to construct transfected HEK293 cells. Transfected HEK293/hURAT1 cells were used to the test for 14C-uric acid transport activity. HEK293/hURAT1 cells were seeded in a 96-well plate (BD, Cat. No. 356461) fully coating with poly-D-lysine at a density of 6×10^4 cells per well. Cells were incubated at 37° C. for at least 12 hrs in the calorstat, and then washed with pre-heated washing buffer (125 mM sodium gluconate, 10 mM HEPES pH=7.4) at an amount of 200 μL per well to wash out the culture medium. The uric acid [8-14C] (ARC, Cat. No. ARC0513-250UCI) containing or not containing the compound was added to 50 μL HBSS buffer which was free of chloric ion each well (HBSS buffer: 125 mM sodium gluconate, 4.8 mM potassium gluconate, 1.3 mM calcium gluconate, 1.2 mM potassium dihydrogen phosphate, 1.2 mM magnesium sulfate, 5.6 mM glucose, 25 mM HEPES pH=7.4) to make the specific concentration of the uric acid 1 μCi per well. The incubating solution was removed after 10 mins incubation, followed by adding 100 μL cold washing buffer, after washing with this buffer for 3 times, the buffer was completely removed from the well.

| SMILES | IC50 [µM] |
| --- | --- |
| C[C@H](Oc1ccc2cncc(-c3ccc(C#N)cc3)c2c1)C(=O)O | 2.69 |
| C[C@@H](Oc1ccc2cncc(-c3ccc(C#N)cc3)c2c1)C(=O)O | 5.52 |
| C[C@@H](CC(=O)O)c1cc2c(-c3ccc(C#N)c4ccccc34)cncc2s1 | 0.037 |
| C[C@H](CC(=O)O)c1cc2c(-c3ccc(C#N)c4ccccc34)cncc2s1 | 0.011 |

The next lines start with the values.

| IC50 [µM] | SMILES |
| --- | --- |
| 0.008 | CC(C)(Sc1ccc2cncc(-c3ccc(C#N)c4ccccc34)c2c1)C(=O)O |
| 1.86 | C[C@@H](CC(=O)O)c1cc2cncc(-c3ccc(C#N)cc3)c2s1 |
| 0.01 | C[C@@H](CC(=O)O)c1cc2cncc(-c3ccc(C#N)c4ccccc34)c2s1 |
| 0.038 | C[C@H](CC(=O)O)c1cc2cncc(-c3ccc(C#N)cc3)c2s1 |
| 0.58 | C[C@H](CC(=O)O)c1cc2cncc(-c3ccc(C#N)c4ccccc34)c2s1 |
